The term IC50 denotes the point on the concentration scale where inhibition reaches its midpoint. A lower IC50 goes with inhibition by little substance. Broadly, the melting point is the temperature of the solid-liquid transition.

Experimental findings from US20150038545A1, “HYDROXYPHENYL PYRROLE COMPOUNDS CONTAINING AN HYDROXAMIC ACID AS HDAC INHIBITORS AND MEDICINAL APPLICATIONS THEREOF” (UNIVERSIDAD DEL PAÍS VASCO, priority 2011, published 2015) are described below.

One series has as its system Colo205. The series can be described thus: Cancer cell growth inhibition (CellTiter-Glo), Colo205. Format: cell-based. The following applies: Homo sapiens, COLO 205; Colorectal Cancer, Colo205, 72 h treatment. On the procedure:
(§1) Cell culture-based assays were used to evaluate the ability of compounds of the invention to inhibit cancer cell growth.
(§2) Cells were obtained from the American Type Culture Collection (ATCC). Cells were cultured at 37° C. with 5% CO2 in the appropriate growth medium (see table below), and harvested respectively during the logarithmic growth period and counted with hemocytometer. The cell viability was examined by trypan blue exclusion. Cell concentrations were adjusted to 5.56×10^4 cells/ml with respective medium.
(§3) Stock solutions of test compounds and positive drugs Doxorubicin (Zhejiang, Haizheng, China), Cisplatin (Nanjing Zhiyao, China) and Mitomycin (Zhejiang, Haizheng, China) were prepared in dimethyl sulphoxide (DMSO) or PBS at 20 mM.
(§4) In order to determine the IC50 for each compound, experiments were carried out in 96-well plates and the cell lines seeded at a density of 5,000 cells/well. […] All treatments were performed in triplicate. 10 μl of drug solution was added to each well and incubated for 72 hours. At the end of the incubation, 100 μl of the CellTiter-Glo Reagent were added to each well and the contents were mixed for 2 munites on an orbital shaker to induce cell lysis. The plate was incubated at room temperature for 10 minutes to stabilize luminiscent signal, and luminiscent was recorded. […] In order to calculate IC50 values, dose-responsive curves were fitted using nonlinear regression model with a sigmoidal dose response.
Background: Cellular ATP, detected with luciferase, serves as a proxy for viable cell number.

The test system of another series is SK-MEL-5. Briefly: Cancer cell growth inhibition (CellTiter-Glo), SK-MEL-5. Format: cell-based, Human. The following applies: Homo sapiens; Melanoma, SK-MEL-5, 72 h treatment. The method, then:
as §1, §2, §3, §4

The next series deals with NCI-H460. The series can be described thus: Cancer cell growth inhibition (CellTiter-Glo), NCI-H460. Format: cell-based, Human. The following applies: Homo sapiens; Lung Cancer, NCI-H460, 72 h treatment. The method, then:
as §1, §2, §3, §4

Another series relates to A549. Briefly: Cancer cell growth inhibition (CellTiter-Glo), A549. Format: cell-based, Human. The following applies: Homo sapiens; Lung Cancer, A549, 72 h treatment. On the procedure:
as §1, §2, §3, §4

The subject of another series is NCI-H1703. Briefly: Cancer cell growth inhibition (CellTiter-Glo), NCI-H1703. Format: cell-based, Human. The following applies: Homo sapiens; Lung Cancer, NCI-H1703, 72 h treatment. On the procedure:
as §1, §2, §3, §4

The next series deals with SK-MES-1. The series can be described thus: Cancer cell growth inhibition (CellTiter-Glo), SK-MES-1. The following applies: Homo sapiens; Lung Cancer, SK-MES-1, 72 h treatment. Format: cell-based, Human. On the procedure: as §1, §2, §3, §4
For another series, the system named is LoVo. Briefly: Cancer cell growth inhibition (CellTiter-Glo), LoVo. Format: cell-based, Human. The following applies: Homo sapiens, Colorectal Cancer, 72 h treatment. The method, then:
as §1, §2, §3, §4

The test system of a further series is MCF-7. Briefly: Cancer cell growth inhibition (CellTiter-Glo), MCF-7. The following applies: Homo sapiens, MCF7; Breast Cancer, MCF-7, 72 h treatment. Format: cell-based, Human. On the procedure:
as §1, §2, §3, §4

The subject of the next series is Calu-6. Briefly: Cancer cell growth inhibition (CellTiter-Glo), Calu-6. The following applies: Homo sapiens; Lung Cancer, Calu-6, 72 h treatment. Format: cell-based, Human. The method, then:
as §1, §2, §3, §4

The next series concerns HCT-116. The series can be described thus: Cancer cell growth inhibition (CellTiter-Glo), HCT-116. Format: cell-based. The following applies: Homo sapiens; Colorectal Cancer, HCT-116, 72 h treatment. The method, then: as §1, §2, §3, §4

In the case of `O=C(CCCCCNC(=O)c1[nH]c(-c2ccccc2)cc1-c1ccc(O)cc1)NO` [Example 1, N-(6-(hydroxyamino)-6-oxohexyl)-3-(4-hydroxyphenyl)-5-phenyl-1H-pyrrole-2-carboxamide], the melting point fell in the range of 99 to 100 °C. The IC50 with Colo205 turned out to be 1.87 µM. The same molecule gave an IC50 in the series on SK-MEL-5 of 1.28 µM. For the same molecule, half-maximal inhibition in the series with NCI-H460 (IC50) was put at 2.4 µM. The same molecule registered an IC50 with A549 of 4.65 µM. Further, half-maximal inhibition with NCI-H1703 (IC50) was put at 3.26 µM. For the same molecule, in the series with SK-MES-1, the IC50 came out at 2.88 µM. This molecule also gave an IC50 in the series with LoVo of 1.4 µM. Moreover, the IC50 in the series with MCF-7 was 1.75 µM. The same molecule displayed an IC50 in the series on Calu-6 of 2.79 µM. The IC50 with HCT-116 is 0.95 µM.
Take `O=C(CCCCCNC(=O)c1[nH]c(-c2ccc(O)cc2)cc1-c1ccoc1)NO` [Example 5, 3-(3-furyl)-N-(5-(hydroxycarbamoyl)pentyl)-5-(4-hydroxy-phenyl)-1H-pyrrole-2-carboxamide]: the IC50 stood at 0.59 µM with Colo205; 0.82 µM in the series with SK-MEL-5; 10.9 µM with NCI-H460; 4.35 µM in the series with A549; 1.64 µM in the series with NCI-H1703; 3.62 µM with SK-MES-1. For the same molecule, the IC50 in the series with LoVo was 1.08 µM; in the series with MCF-7, 9.23 µM; with Calu-6, 4.66 µM; in the series with HCT-116, 0.45 µM.
Consider `O=C(CCCCCNC(=O)c1[nH]c(-c2ccc(O)cc2)cc1-c1ccccc1)NO` [Example 2, N-(6-(hydroxyamino)-6-oxohexyl)-5-(4-hydroxyphenyl)-3-phenyl-1H-pyrrole-2-carboxamide], for which the melting point lay within 224 to 225 °C. Moreover, half-maximal inhibition in the series on Colo205 (IC50) required 1.82 µM. This molecule also showed an IC50 with SK-MEL-5 of 1.87 µM. For the same molecule, half-maximal inhibition in the series on NCI-H460 (IC50) was put at 9.41 µM. The same molecule displayed an IC50 in the series on A549 of 8.25 µM. The same molecule registered a half-maximal inhibitory concentration (IC50) with NCI-H1703 of 2.06 µM. This molecule displayed an IC50 in the series on SK-MES-1 of 4.8 µM. The IC50 with LoVo was found to be 2.69 µM. The same molecule yielded an IC50 in the series on MCF-7 of 10.9 µM. In the series with Calu-6, the concentration for half-maximal inhibition (IC50) turned out to be 4.22 µM. In addition, the IC50 with HCT-116 was determined as 1.75 µM.
Turning to `O=C(CCCCCNC(=O)c1[nH]c(-c2ccc(O)cc2)cc1-c1ccsc1)NO` [Example 6, N-(5-(hydroxycarbamoyl)pentyl)-5-(4-hydroxyphenyl)-3-(3-thienyl)-1H-pyrrole-2-carboxamide], the IC50 in the series with Colo205 is 0.87 µM; with SK-MEL-5, 1.02 µM; in the series with NCI-H460 it was 9.38 µM; with A549, 5.39 µM; in the series with NCI-H1703, 1.83 µM; in the series on SK-MES-1, 3.7 µM. The concentration for half-maximal inhibition (IC50) came to 1.24 µM in the series on LoVo, 7.07 µM in the series with MCF-7, 3.46 µM with Calu-6 and 0.78 µM with HCT-116.
